Tests used:
NEDL1 mRNA = NEDL1 mRNA expression by semi-quantitative RT-PCR in SK-N-BE (2) C cells; format: cell-based, human; conditions: 250 μM DFO for 24 hours, FIG. 2
Protocol: Human neuroblastoma SK-N-BE (2) C cells were cultured in Dulbecco's […] (DMEM) containing 10% heat treated fetal bovine serum (FBS). Hypoxia culturing was carried out in a 2% oxygen concentration, with the cells in a Napco automatic O2/CO2 cell culture apparatus (Waken Co., Ltd.). DFO (Sigma) treatment was carried out by exposing the cells to 250 μM DFO for 24 hours.
(Reverse Transcription Polymerase Chain Reaction (RT-PCR)) TRIZOL reagent (Invitrogen Corp.) was used according to the manufacturer's manual to prepare total RNA from untreated, hypoxia-treated, DFO-treated cells and the transfected cells. RT-PCR was conducted in the following manner. The prepared total RNA (1 μg/2.5 μL) was incubated at 75° C. for 5 minutes and then allowed to stand on ice for 5 minutes. The prepared RNA was added to a mixture of 0.5 μL RNase inhibitor (40 units/μL, Toyobo, Ltd.), 0.5 μL M-MLV reverse transcriptase (200 units/μL, Invitrogen Corp.), 1 μL 50×dNTPs (2 mM each), 0.5 μL oligo(dT) primer (0.5 mg/mL, Invitrogen Corp.), 2 μL 5×first-strand buffer (Invitrogen Corp.) and 1 μL 0.1 M dithiothreitol, and the mixture was incubated for 10 minutes at room temperature, 45 minutes at 37° C. and 3 minutes at 95° C. to prepare cDNA. The prepared cDNA was used as template with the primers under the following PCR conditions to amplify the NEDL1 and β-actin gene cDNA fragments. […]

HIF-1α = conditions: cells exposed to DFO, normal oxygen conditions, Non-patent document 12; cited from earlier work

CC(=O)N(O)CCCCCNC(=O)CCC(=O)N(O)CCCCCNC(=O)CCC(=O)N(O)CCCCCN [DFO, desferrioxamine]
NEDL1 mRNA expression (NEDL1 mRNA): increased
HIF-1α detection as protein (HIF-1α): detected

Reference: patent US20090269794A1, “SCREENING METHOD FOR COMPOUND INHIBITING DEVELOPMENT OR PROGRESSION OF FAMILIAL AMYOTROPHIC LATERAL SCLEROSIS AND DIAGNOSTIC METHOD FOR FAMILIAL AMYOTROPHIC LATERAL SCLEROSIS” (HISAMITSU PHARMACEUTICAL CO., INC., priority 2005, published 2009)
